Assay results as given in PMC3726930, “Synthesis and Biological Activity of N-Sulfonyltripeptides with C-Terminal Arginine as Potential Serine Proteases Inhibitors” (International Journal of Peptide Research and Therapeutics, 2012).

tested on: MDA-MB-231 cells; conditions: 24 h

| IC50 [µM] | Structure (SMILES) |
| --- | --- |
| 570 | C[C@H](NC(=O)[C@@H](CO)NS(C)(=O)=O)C(=O)N[C@@H](CCCNC(=N)N)C(=O)NCCCCCN [Compound 3, CH3PhSO2-D-Ser-Ala-Arg-NH-(CH2)5-NH2] |
| 450 | CS(=O)(=O)N[C@H](CO)C(=O)NCC(=O)N[C@@H](CCCNC(=N)N)C(=O)NCCCCCN [Compound 6, CH3PhSO2-D-Ser-Gly-Arg-NH-(CH2)5-NH2] |
| 620 | CCC[C@H](NC(=O)[C@@H](CO)NS(C)(=O)=O)C(=O)N[C@@H](CCCNC(=N)N)C(=O)NCCCCCN [Compound 9, CH3PhSO2-D-Ser-NVa-Arg-NH-(CH2)5-NH2] |
| 590 | CCC[C@H](NC(=O)[C@@H](CO)NS(=O)(=O)c1c(C(C)C)cc(C(C)C)cc1C(C)C)C(=O)N[C@@H](CCCNC(=N)N)C(=O)O [Compound 14, 2,4,6-TriiPrPhSO2-D-Ser-NVa-Arg-OH] |

tested on: DLD cells; conditions: 24 h

| IC50 [µM] | Structure (SMILES) |
| --- | --- |
| 390 | C[C@H](NC(=O)[C@@H](CO)NS(C)(=O)=O)C(=O)N[C@@H](CCCNC(=N)N)C(=O)NCCCCCN [Compound 3, CH3PhSO2-D-Ser-Ala-Arg-NH-(CH2)5-NH2] |
| 260 | CS(=O)(=O)N[C@H](CO)C(=O)NCC(=O)N[C@@H](CCCNC(=N)N)C(=O)NCCCCCN [Compound 6, CH3PhSO2-D-Ser-Gly-Arg-NH-(CH2)5-NH2] |
| 50 | CCC[C@H](NC(=O)[C@@H](CO)NS(C)(=O)=O)C(=O)N[C@@H](CCCNC(=N)N)C(=O)NCCCCCN [Compound 9, CH3PhSO2-D-Ser-NVa-Arg-NH-(CH2)5-NH2] |
| 220 | CCC[C@H](NC(=O)[C@@H](CO)NS(=O)(=O)c1c(C(C)C)cc(C(C)C)cc1C(C)C)C(=O)N[C@@H](CCCNC(=N)N)C(=O)O [Compound 14, 2,4,6-TriiPrPhSO2-D-Ser-NVa-Arg-OH] |
